Test results taken from publication PMC7601700, “Interaction of Cytochrome C Oxidase with Steroid Hormones” (Cells, 2020).
pIC50, pKd, pKi: −log10 of the molar value. “Also recorded” adds a separate entry of the source. Like-named read-outs stand apart in the source and are kept apart here.

How the values were obtained:
[1] = target: T1, cytochrome c oxidase (CcO) purified from bovine heart (Bos taurus, UniProt P00396+P68530); test: Cytochrome oxidase activity assay (oxygen uptake, Clark-type electrode; ascorbate + TMPD + cytochrome c); format: biochemical; details: for Inhibition of CcO Oxidase Activity, DM Influence: effect of dodecyl-maltoside on the inhibition; for pKd: X-axis intercept; for slope tangent of Ki(app) vs [DM], ratio Ki:Kc: ratio of the affinities of hormone and DM
T1 construct: Cytochrome oxidase was isolated from bovine heart mitochondria; from tissue; host or cells: bovine heart mitochondria
Description: Cytochrome oxidase was isolated from bovine heart mitochondria using the modified method of Fowler et al. as described previously by Vygodina et al..
Cytochrome oxidase activity assay. Oxygen uptake rates were measured with a covered Clark-type electrode by an Oxytherm instrument (Hansatech, UK) in a thermostatted cell at 25 °C with permanent stirring. The assays were performed in a basic medium containing 50 mM Hepes, 50 mM Tris, pH 7.5 and 0.1 mM EDTA. The medium was also supplemented with indicated concentrations of DM which are given throughout the text in mM (0.05% ≈ 1.0 mM DM). 5 mM ascorbate, 0.1 mM TMPD and 10 µM cytochrome c were used as the oxidation substrate. Other details are indicated in the legends to figures.
In order to determine Ki(app), the titration curves in Figure 2B were approximated by Equation (2) that connects normalized activity, v, with testosterone concentration, [I].

[2] = target: T2, cytochrome c oxidase (CcO) purified from bovine heart, heme a3 (Bos taurus, UniProt P00396+P68530); test: Absorption spectra of CcO (hormone-induced difference spectra); format: binding; details: for Spectral Response Induced in Oxidized CcO: air-oxidized CcO; for Magnitude ε of the spectral shift induced in oxidized CcO: estradiol: 1 mM hormone, pH 8.0, 437 minus 415 nm
T2 construct: Cytochrome oxidase was isolated from bovine heart mitochondria; from tissue; host or cells: bovine heart mitochondria
Description: Absorption spectra of CcO were recorded with a Cary 300 Bio spectrophotometer (Varian, Palo Alto, CA, USA) in semi-micro cuvettes with blackened walls and 10 mm light pathway (Hellma, Müllheim, Germany), in the basic medium at pH 8.0 supplemented with indicated different additions. The kinetics of spectral changes was monitored in a dual-wavelength mode in a SLM Aminco DW-2000 spectrophotometer.

[3] = target: T1, cytochrome c oxidase (CcO) purified from bovine heart; test: Peroxidase activity of CcO (o-dianisidine peroxidation by H2O2); format: biochemical; details: for Inhibition of CcO Peroxidase Activity: 0.2 mM o-dianisidine, 4 mM H2O2, 0.6 µM CcO
Description: Peroxidase activity of CcO was assayed as described by Vygodina and Konstantinov by following spectrophotometrically peroxidation of 0.2 mM o-dianisidine at 432 nm minus 580 nm in a dual-wavelength SLM Aminco DW-2000 spectrophotometer (USA). The reaction mixture contained 0.6 µM CcO in the aerobic basic medium supplemented with different concentrations of DM. No o-dianisidine oxidase activity was observed and the peroxidase reaction was initiated by addition of 4 mM H2O2.

[4] = target: T1, cytochrome c oxidase (CcO) purified from bovine heart; design: method as in the paper is submitted for publication; details: from study on inhibition of CcO by Triton X-100; ref the paper is submitted for publication; read-out: affinity between DM and CcO, Kc; cited from earlier work
human endothelial cells = system: human endothelial cells; design: method as in PMID 17267145; details: read-out: IC50% for inhibition of cell growth; cited from earlier work
CcO from R. sphaeroides = system: CcO from R. sphaeroides; design: method as in PMID 24073649; details: cited from earlier work
R. sphaeroides CcO = R. sphaeroides CcO (Cereibacter sphaeroides, UniProt P33517+Q03736); test: Preliminary experiments on inhibition of R. sphaeroides CcO; format: biochemical, Rhodobacter sphaeroides
Sequence of R. sphaeroides CcO (P33517 whole entry): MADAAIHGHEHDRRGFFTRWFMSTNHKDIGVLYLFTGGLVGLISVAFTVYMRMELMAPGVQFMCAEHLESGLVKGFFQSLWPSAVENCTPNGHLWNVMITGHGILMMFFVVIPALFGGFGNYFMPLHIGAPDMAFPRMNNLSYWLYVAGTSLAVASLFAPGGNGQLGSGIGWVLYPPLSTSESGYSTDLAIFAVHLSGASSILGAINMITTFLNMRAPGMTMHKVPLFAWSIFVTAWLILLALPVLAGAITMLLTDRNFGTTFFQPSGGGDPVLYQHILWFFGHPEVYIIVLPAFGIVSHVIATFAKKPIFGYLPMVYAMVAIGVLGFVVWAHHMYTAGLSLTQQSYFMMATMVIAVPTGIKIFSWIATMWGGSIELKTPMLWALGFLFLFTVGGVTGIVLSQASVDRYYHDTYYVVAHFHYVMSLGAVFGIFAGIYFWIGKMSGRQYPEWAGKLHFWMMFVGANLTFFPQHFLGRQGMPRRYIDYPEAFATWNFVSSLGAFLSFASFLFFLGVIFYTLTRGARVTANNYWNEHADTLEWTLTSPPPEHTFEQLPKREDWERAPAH
Sequence of R. sphaeroides CcO (Q03736 26-290 limits assumed): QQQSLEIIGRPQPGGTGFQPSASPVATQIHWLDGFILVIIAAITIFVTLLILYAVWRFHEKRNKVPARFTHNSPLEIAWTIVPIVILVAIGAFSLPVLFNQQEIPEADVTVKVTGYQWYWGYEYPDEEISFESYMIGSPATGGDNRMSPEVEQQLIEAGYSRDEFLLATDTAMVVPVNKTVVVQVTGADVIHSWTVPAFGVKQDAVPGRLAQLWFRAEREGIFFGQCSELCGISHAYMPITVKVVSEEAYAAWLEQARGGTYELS

[5] = target: T3, cytochrome c oxidase (CcO) purified from bovine heart, electron transfer from heme a to heme a3 (Bos taurus, UniProt P00396+P68530); test: Stopped-flow kinetics of CcO (heme a3) reduction by dithionite in the presence of RuAm; format: biochemical; details: for rate constant of heme a3 reduction, rapid phase: control 105.3; for rate constant of heme a3 reduction, slow phase: control 6.15
T3 construct: Cytochrome oxidase was isolated from bovine heart mitochondria; from tissue; host or cells: bovine heart mitochondria
Description: The kinetics of CcO reduction by dithionite in the presence of ruthenium hexammine (RuAm) was studied in an Applied Photophysics SX-20 stopped-flow spectrophotometer (UK) operated in a diode array mode, using a 20 µL cell with 1 cm optical pathway. The spectra in the 280–720 nm range were collected with a minimal interval of 1 ms. The assay medium contained 100 mM Hepes, 100 mM Tris, 50 mM KCl, 100 µM EGTA, catalase (2 µL/5 mL of the solution, indicated activity 23,000 units/mg protein), 0.05% DM, pH 8.0. Aerobic buffer with 6 µM CcO and 0.4 mM or 1 mM estradiol was rapidly mixed with the equal volume of the same buffer containing 40 mM sodium dithionite and 10 mM RuAm.
Procession of the stopped-flow data was performed with ProKineticist software provided with the Applied Photophysics SX-20 instrument, as well as by using Origin 7 and Origin 9 Microcal software.
We investigated effect of estradiol on the kinetics of electron transfer from heme a to heme a3. To this end, the kinetics of the hemes’ reduction by dithionite in the presence of RuAm was studied. In the experiment shown in Figure 4, 3 µM CcO was mixed rapidly with 20 mM dithionite and 5 mM RuAm and the reaction time course was followed by taking the spectra each ms in the 280–720 nm range in a rapid mixing diode array spectrophotometer.

[6] = true Ki extrapolated to zero dodecyl-maltoside (DM) from plot of Ki(app) vs [DM], 25 °C, pH 7.5, read-out: Inhibition of CcO Oxidase Activity, Ki (DM→0)

SMILES: C=C1CC[C@H](O)C/C1=C/C=C1\CCC[C@]2(C)[C@@H]([C@H](C)CCCC(C)C)CC[C@@H]12 [Cholecalciferol (vitamine D3), Cholecalciferol]
- Inhibition of CcO Oxidase Activity, DM Influence [1]: competes 1:1
- pKi [1, 6]: 5.05
- Spectral Response Induced in Oxidized CcO [2]: red shift of a3^3+
- Magnitude ε of the spectral shift induced in oxidized CcO ([2]; 13 mM DM): 25 mM^−1⋅cm^−1
- Inhibition of CcO Peroxidase Activity [3]: yes
- pKi ([3]; read-out: Ki for inhibition of CcO peroxidase activity): ~3.70

SMILES: CCCCCCCCCCCCO[C@@H]1O[C@H](CO)[C@@H](O[C@H]2O[C@H](CO)[C@@H](O)[C@H](O)[C@H]2O)[C@H](O)[C@H]1O [DM, dodecyl-maltoside]
- pKd ([1]; from plot of Ki(app) for estradiol vs [DM], read-out: dissociation constant for DM in the absence of estradiol, Kc): 2.83
- pKd ([1]; from plot of Ki(app) for testosterone vs [DM], read-out: dissociation constant for DM in the absence of testosterone, Kc): 2.89
- pKd [4]: 2.92

SMILES: C[C@]12CC[C@H](O)CC1=CC[C@@H]1[C@@H]2CC[C@]2(C)C(=O)CC[C@@H]12 [Dehydroepiandrosterone (DHEA), Dehydroepiandrosterone]
- pKi [1]: 3.96
- Inhibition of CcO Oxidase Activity, DM Influence [1]: competes 1:1
- Inhibition of CcO Peroxidase Activity [3]: no

SMILES: CC(=O)[C@H]1CC[C@H]2[C@@H]3CCC4=CC(=O)CC[C@]4(C)[C@H]3CC[C@]12C [Progesterone]
- Inhibition of CcO Oxidase Activity, DM Influence [1]: competes 1:1
- pKi [1, 6]: 3.92
- Inhibition of CcO Peroxidase Activity [3]: no

SMILES: C[C@]12CC[C@H]3[C@@H](CCC4=CC(=O)CC[C@@]43C)[C@@H]1CC[C@@H]2O [Testosterone]
- pKi [1]: 4.10
- maximal level of inhibition by excess testosterone ([1]; 1 mM DM): ca. 25%
- inhibition of CcO oxidase activity ([1]; 4 mM testosterone, 1 mM DM): inhibits the activity but weakly
- inhibition of CcO oxidase activity ([1]; 4 mM testosterone, 20 mM DM): strong inhibition; also recorded: does inhibit
- Inhibition of CcO Oxidase Activity, DM Influence [1]: competes 1:1; increases maximal level of inhibition
- inhibition of CcO oxidase activity directly observed (fold) ([1]; high concentrations of both testosterone and DM (Figure 2A, trace 1: 4 mM testosterone, 20 mM DM)): ≤ 3 fold
- slope tangent of Ki(app) vs [DM], ratio Ki:Kc [1]: 0.05
- inhibition at 100 µM ([1]; read-out: inhibition of bovine oxidase): 13%
- Spectral Response Induced in Oxidized CcO [2]: no
- pIC50 (human endothelial cells): 4.00
- Inhibition of CcO Peroxidase Activity [3]: no
- Inhibition of CcO Peroxidase Activity ([3]; listed as testosterone): do not inhibit
- effect on the activity of CcO from R. sphaeroides (CcO from R. sphaeroides): did not reveal inhibition

SMILES: C[C@]12CCC(=O)C=C1CC[C@@H]1[C@@H]2CC[C@]2(C)C(=O)CC[C@@H]12 [androstenedione]
- pIC50 (human endothelial cells): 3.43

SMILES: CC(C)CCC[C@@H](C)[C@H]1CC[C@H]2[C@@H]3CC=C4C[C@@H](O)CC[C@]4(C)[C@H]3CC[C@]12C [cholesterol]
- inhibition of the oxidase activity of the bovine heart enzyme ([1]; unpublished data of the authors): does not inhibit

SMILES: C[C@]12CC[C@@H]3c4ccc(OC(=O)c5ccccc5)cc4CC[C@H]3[C@@H]1CC[C@@H]2O [estradiol-3-benzoate]
- inhibition of R. sphaeroides CcO (R. sphaeroides CcO): inhibition
- inhibition of oxygen consumption (oxidase activity) ([1]; 0.5 mM estradiol, 1 mM DM): approximately by half; also recorded: does inhibit
- inhibition of CcO oxidase activity (fold) ([1]; 2 mM estradiol, 1 mM DM): ~4 fold
- inhibition of CcO oxidase activity ([1]; 2 mM estradiol, 20 mM DM): only a slight inhibition
- Inhibition of CcO Oxidase Activity, DM Influence [1]: competes 1:1
- slope tangent of Ki(app) vs [DM], ratio Ki:Kc [1]: 0.25
- pKi [1, 6]: 3.43
- time for the spectral shift to reach completion after hormone addition ([2]; 1 mM estradiol, 13 mM DM, oxidized CcO): 3 to 5 min
- magnitude of spectral shift relative to the effect induced by cyanide ([2]; 1 mM estradiol, cyanide effect from ref 20): ca. 1/5
- Spectral Response Induced in Oxidized CcO [2]: red shift of a3^3+
- Magnitude ε of the spectral shift induced in oxidized CcO ([2]; 13 mM DM): 10 mM^−1⋅cm^−1
- effect on the absorption spectrum of the reduced CcO ([2]; reduced CcO): No effect
- Inhibition of CcO Peroxidase Activity [3]: no
- Inhibition of CcO Peroxidase Activity ([3]; listed as estradiol): do not inhibit
- rate constant of heme a3 reduction, rapid phase ([5]; 0.2 mM estradiol, 3 µM CcO, 20 mM dithionite, 5 mM RuAm): 67.75 s⁻¹
- rate constant of heme a3 reduction, slow phase ([5]; 0.2 mM estradiol): 5.3 s⁻¹
- decrease of the rate constants of both phases of heme a3 reduction ([5]; 0.5 mM estradiol): ca. 60%
- rate constant of heme a3 reduction, slow phase ([5]; 0.5 mM estradiol): 2.5 s⁻¹
- rate constant of heme a3 reduction, rapid phase ([5]; 0.5 mM estradiol): 39.6 s⁻¹
- effect on the activity of CcO from R. sphaeroides (CcO from R. sphaeroides): did not reveal inhibition

SMILES: C[C@]12CC[C@H]3[C@@H](CCC4=CC(=O)CC[C@@H]43)[C@@H]1CC[C@@H]2O [nandrolone]
- pIC50 (human endothelial cells): 5.05

SMILES: C[C@]12CC[C@H]3[C@@H](CCC4=CC(O)CC[C@@H]43)[C@@H]1CCC2O (stereo partly shown) [norandrostenediol]
- pIC50 (human endothelial cells): 2.22

SMILES: C[C@]12CC[C@H]3[C@@H](CCC4=CC(=O)CC[C@@H]43)[C@@H]1CCC2=O [norandrostenedione]
- pIC50 (human endothelial cells): 3.30

SMILES: CC1=C(/C=C/C(C)=C/C=C/C(C)=C/C(=O)O)C(C)(C)CCC1 [retinoic acid]
- effect on the activity of CcO from R. sphaeroides (CcO from R. sphaeroides): strongly inhibited

SMILES: N[C@@H](Cc1cc(I)c(Oc2ccc(O)c(I)c2)c(I)c1)C(=O)O [thyroid hormone T3]
- effect on the activity of CcO from R. sphaeroides (CcO from R. sphaeroides): inhibited the enzyme; also recorded: strongly inhibited
